Data from ChEMBL document CHEMBL1201862, “PubChem BioAssay data set” (2004).
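48-hour exposure; five concentrations; linearly interpolated endpoints. Abbreviation: GI50, concentration required for 50% inhibition of growth.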 Active and inactive are the calls of the source. No stated cut-off is given here; in the data, active = GI50 up to about 1.1 µM and inactive = higher.

Assays:
Assay in all cases: growth of human tumour cells (NCI), 48 h
HCC 2998 = tested on: HCC 2998
HOP-92 = tested on: HOP-92
SNB-78 = tested on: SNB-78
786-0 = tested on: 786-0
UACC-62 = tested on: UACC-62
SF-539 = tested on: SF-539
KM-20L2 = tested on: KM-20L2
TK-10 = tested on: TK-10
OVCAR-5 = tested on: OVCAR-5
HL-60 = tested on: HL-60
Malme-3M = tested on: Malme-3M
SK-OV-3 = tested on: SK-OV-3
OVCAR-3 = tested on: OVCAR-3
LXFL 529 = tested on: LXFL 529
SK-MEL-28 = tested on: SK-MEL-28
K562 = tested on: K562
DMS-114 = tested on: DMS-114
SF-268 = tested on: SF-268
RXF 393 = tested on: RXF 393
SF-295 = tested on: SF-295
NCI-H23 = tested on: NCI-H23
HCT-116 = tested on: HCT-116
A498 = tested on: A498
HOP-18 = tested on: HOP-18
MOLT-4 = tested on: MOLT-4
HCT-15 = tested on: HCT-15
A549 = tested on: A549
CCRF-CEM = tested on: CCRF-CEM
CAKI-1 = tested on: CAKI-1
SNB-19 = tested on: SNB-19
EKVX = tested on: EKVX
M14 = tested on: M14
COLO 205 = tested on: COLO 205
HT-29 = tested on: HT-29
DLD-1 = tested on: DLD-1
DMS-273 = tested on: DMS-273
RPMI-8226 = tested on: RPMI-8226
IGROV-1 = tested on: IGROV-1
NCI-H460 = tested on: NCI-H460
M19-MEL = tested on: M19-MEL
HOP-62 = tested on: HOP-62
UACC-257 = tested on: UACC-257
NCI-H226 = tested on: NCI-H226
SK-MEL-2 = tested on: SK-MEL-2
XF498 = tested on: XF498
SW-620 = tested on: SW-620
SN12C = tested on: SN12C
SK-MEL-5 = tested on: SK-MEL-5
KM12 = tested on: KM12
LOX IMVI = tested on: LOX IMVI
OVCAR-8 = tested on: OVCAR-8
SNB-75 = tested on: SNB-75
ACHN = tested on: ACHN
SR = tested on: SR
OVCAR-4 = tested on: OVCAR-4
NCI-H522 = tested on: NCI-H522
UO-31 = tested on: UO-31
U-251 = tested on: U-251
DU-145 = tested on: DU-145
MDA-N = tested on: MDA-N
Hs-578T = tested on: Hs-578T
PC-3 = tested on: PC-3
NCI/ADR-RES = tested on: NCI/ADR-RES
T47D = tested on: T47D
MCF7 = tested on: MCF7
MDA-MB-231 = tested on: MDA-MB-231
BT-549 = tested on: BT-549
MDA-MB-435 = tested on: MDA-MB-435

CN(/N=C/c1cccc2cccnc12)c1ccc([N+](=O)[O-])cc1
GI50 (HCC 2998): > 100 µM (inactive)
GI50 (HOP-92): > 100 µM (inactive)
GI50 (SNB-78): > 100 µM (inactive)
GI50 (786-0): > 100 µM (inactive)
GI50 (UACC-62): > 100 µM (inactive)
GI50 (SF-539): 7.69 µM (inactive)
GI50 (KM-20L2): > 100 µM (inactive)
GI50 (TK-10): 91.2 µM (inactive)
GI50 (OVCAR-5): > 100 µM (inactive)
GI50 (HL-60): > 100 µM (inactive)
GI50 (Malme-3M): > 100 µM (inactive)
GI50 (SK-OV-3): 43.1 µM (inactive)
GI50 (OVCAR-3): > 100 µM (inactive)
GI50 (LXFL 529): > 100 µM (inactive)
GI50 (SK-MEL-28): > 100 µM (inactive)
GI50 (K562): > 100 µM (inactive)
GI50 (DMS-114): > 100 µM (inactive)
GI50 (SF-268): > 100 µM (inactive)
GI50 (RXF 393): > 100 µM (inactive)
GI50 (SF-295): > 100 µM (inactive)
GI50 (NCI-H23): > 100 µM (inactive)
GI50 (HCT-116): > 100 µM (inactive)
GI50 (A498): > 100 µM (inactive)
GI50 (HOP-18): > 100 µM (inactive)
GI50 (MOLT-4): > 100 µM (inactive)
GI50 (HCT-15): > 100 µM
GI50 (A549): 48.1 µM (inactive)
GI50 (CCRF-CEM): > 100 µM (inactive)
GI50 (CAKI-1): > 100 µM (inactive)
GI50 (SNB-19): > 100 µM (inactive)
GI50 (EKVX): > 100 µM (inactive)
GI50 (M14): > 100 µM (inactive)
GI50 (COLO 205): > 100 µM (inactive)
GI50 (HT-29): 20.7 µM (inactive)
GI50 (DLD-1): > 100 µM (inactive)
GI50 (DMS-273): > 100 µM (inactive)
GI50 (RPMI-8226): > 100 µM (inactive)
GI50 (IGROV-1): > 100 µM (inactive)
GI50 (NCI-H460): 8.07 µM (inactive)
GI50 (M19-MEL): > 100 µM (inactive)
GI50 (HOP-62): > 100 µM (inactive)
GI50 (UACC-257): > 100 µM (inactive)
GI50 (NCI-H226): > 100 µM (inactive)
GI50 (SK-MEL-2): > 100 µM (inactive)
GI50 (XF498): > 100 µM (inactive)
GI50 (SW-620): > 100 µM (inactive)
GI50 (SN12C): > 100 µM (inactive)
GI50 (SK-MEL-5): > 100 µM (inactive)
GI50 (KM12): > 100 µM (inactive)
GI50 (LOX IMVI): > 100 µM (inactive)
GI50 (OVCAR-8): > 100 µM (inactive)
GI50 (SNB-75): 21.4 µM (inactive)
GI50 (ACHN): > 100 µM (inactive)

C/C=C(\C)c1cc(O)c(C)c2c1Oc1cc(O)c(Cl)c(C)c1C(=O)O2
GI50 (HCC 2998): 13 µM (inactive)
GI50 (SNB-78): 29.1 µM (inactive)
GI50 (786-0): 25.6 µM (inactive)
GI50 (SF-539): 20 µM (inactive)
GI50 (KM-20L2): 20.7 µM (inactive)
GI50 (TK-10): 16.2 µM (inactive)
GI50 (OVCAR-5): 16.6 µM (inactive)
GI50 (HL-60): 36 µM (inactive)
GI50 (LXFL 529): 24.8 µM (inactive)
GI50 (SK-MEL-28): 22.4 µM (inactive)
GI50 (DMS-114): 29.6 µM (inactive)
GI50 (SF-268): 30.5 µM (inactive)
GI50 (SR): 23.8 µM (inactive)
GI50 (OVCAR-4): 16.7 µM (inactive)
GI50 (RXF 393): 18.8 µM (inactive)
GI50 (SF-295): 16.7 µM (inactive)
GI50 (NCI-H23): 18.9 µM (inactive)
GI50 (HCT-116): > 10 µM (inactive)
GI50 (HOP-18): < 0.01 µM (active)
GI50 (A549): 31.6 µM (inactive)
GI50 (CAKI-1): 27.4 µM (inactive)
GI50 (SNB-19): 17.3 µM (inactive)
GI50 (EKVX): 26.8 µM (inactive)
GI50 (NCI-H522): 19.4 µM (inactive)
GI50 (M14): 20.1 µM (inactive)
GI50 (COLO 205): 25.3 µM (inactive)
GI50 (HT-29): 19.2 µM (inactive)
GI50 (DLD-1): 17.4 µM (inactive)
GI50 (DMS-273): 34.1 µM (inactive)
GI50 (NCI-H460): 20 µM (inactive)
GI50 (M19-MEL): 34 µM (inactive)
GI50 (HOP-62): 27.7 µM (inactive)
GI50 (UACC-257): 21.5 µM (inactive)
GI50 (NCI-H226): 18.5 µM (inactive)
GI50 (UO-31): 13.5 µM (inactive)
GI50 (SK-MEL-2): 21.5 µM (inactive)
GI50 (SW-620): 19.6 µM (inactive)
GI50 (SN12C): 16.6 µM (inactive)
GI50 (SK-MEL-5): 13.9 µM (inactive)
GI50 (U-251): 23.4 µM (inactive)
GI50 (KM12): 20.9 µM (inactive)
GI50 (LOX IMVI): 17.6 µM (inactive)
GI50 (OVCAR-8): 21.4 µM (inactive)
GI50 (SNB-75): 19.6 µM (inactive)
GI50 (ACHN): 22.2 µM (inactive)

Cc1c2cnccc2c(C)c2c1c1ccccc1n2CCCN
GI50 (HCC 2998): 0.615 µM (active)
GI50 (HOP-92): 0.281 µM (active)
GI50 (SNB-78): 0.76 µM (active)
GI50 (786-0): 0.0667 µM (active)
GI50 (UACC-62): 0.693 µM (active)
GI50 (SF-539): 0.582 µM (active)
GI50 (DU-145): 0.104 µM (active)
GI50 (KM-20L2): 0.183 µM (active)
GI50 (TK-10): 0.326 µM (active)
GI50 (OVCAR-5): 0.667 µM (active)
GI50 (Malme-3M): 0.982 µM (active)
GI50 (MDA-N): 0.226 µM (active)
GI50 (Hs-578T): 0.374 µM (active)
GI50 (PC-3): 0.121 µM (active)
GI50 (SK-OV-3): 0.74 µM (active)
GI50 (SK-MEL-28): 0.857 µM (active)
GI50 (K562): 0.138 µM (active)
GI50 (NCI/ADR-RES): 0.299 µM (active)
GI50 (DMS-114): 0.31 µM (active)
GI50 (T47D): 0.526 µM (active)
GI50 (SR): < 0.01 µM (active)
GI50 (OVCAR-4): 0.14 µM (active)
GI50 (MCF7): 0.282 µM (active)
GI50 (RXF 393): 0.301 µM (active)
GI50 (NCI-H23): 0.474 µM (active)
GI50 (HCT-116): 0.0929 µM (active)
GI50 (A498): 0.871 µM (active)
GI50 (HOP-18): 0.492 µM (active)
GI50 (MOLT-4): 0.0843 µM (active)
GI50 (HCT-15): 0.169 µM
GI50 (A549): 0.408 µM (active)
GI50 (SNB-19): 0.424 µM (active)
GI50 (EKVX): 0.525 µM (active)
GI50 (NCI-H522): 0.447 µM (active)
GI50 (M14): 0.276 µM (active)
GI50 (COLO 205): 0.222 µM (active)
GI50 (HT-29): 0.206 µM (active)
GI50 (MDA-MB-231): 0.171 µM (active)
GI50 (BT-549): 1.46 µM (inactive)
GI50 (DLD-1): 0.116 µM (active)
GI50 (DMS-273): 0.133 µM (active)
GI50 (RPMI-8226): 0.153 µM (active)
GI50 (IGROV-1): 0.506 µM (active)
GI50 (M19-MEL): 0.262 µM (active)
GI50 (MDA-MB-435): 0.129 µM (active)
GI50 (HOP-62): 0.637 µM (active)
GI50 (UACC-257): 1.09 µM (active)
GI50 (NCI-H226): 0.873 µM (active)
GI50 (UO-31): 0.83 µM (active)
GI50 (SK-MEL-2): 0.721 µM (active)
GI50 (XF498): 0.713 µM (active)
GI50 (SW-620): 0.0787 µM (active)
GI50 (SN12C): 0.401 µM (active)
GI50 (SK-MEL-5): 0.755 µM (active)
GI50 (U-251): 0.258 µM (active)
GI50 (KM12): 0.137 µM (active)
GI50 (LOX IMVI): 0.109 µM (active)
GI50 (OVCAR-8): 0.259 µM (active)
GI50 (SNB-75): 0.736 µM (active)
GI50 (ACHN): 0.243 µM (active)
